Results from patent US20220402950A1, “SUBSTITUTED BENZIMIDAZOLES AS PAD4 INHIBITORS” (BRISTOL-MYERS SQUIBB COMPANY, priority 2018, published 2022).
pIC50: −log10 of the molar value.

Biological target: human PAD4 (hPAD4) (Homo sapiens, UniProt Q9UM07)
Experiment: RFMS Human PAD4 Functional Assay
Format: biochemical
Conditions: hPAD4 RFMS IC50, human PAD4, rapid-fire mass spectrum (RFMS) assay; 5 nM hPAD4, 250 μM BAEE
Procedure, shortened: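 RapidFire ESI-MS quantification, normalised to a modified-citrulline internal standard, after phenyl glyoxal (final 4 mM) derivatisation of the TCA-quenched reaction. The enzyme (10 nM) sat 30 min with compound (up to 50 μM final) before 500 μM BAEE (as added) started a 90 min, 37 °C reaction. Buffer: HEPES pH 7.5, 50 μM calcium, 5 μM TPEN.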

Sequence of human PAD4 (hPAD4) (Q9UM07 whole entry): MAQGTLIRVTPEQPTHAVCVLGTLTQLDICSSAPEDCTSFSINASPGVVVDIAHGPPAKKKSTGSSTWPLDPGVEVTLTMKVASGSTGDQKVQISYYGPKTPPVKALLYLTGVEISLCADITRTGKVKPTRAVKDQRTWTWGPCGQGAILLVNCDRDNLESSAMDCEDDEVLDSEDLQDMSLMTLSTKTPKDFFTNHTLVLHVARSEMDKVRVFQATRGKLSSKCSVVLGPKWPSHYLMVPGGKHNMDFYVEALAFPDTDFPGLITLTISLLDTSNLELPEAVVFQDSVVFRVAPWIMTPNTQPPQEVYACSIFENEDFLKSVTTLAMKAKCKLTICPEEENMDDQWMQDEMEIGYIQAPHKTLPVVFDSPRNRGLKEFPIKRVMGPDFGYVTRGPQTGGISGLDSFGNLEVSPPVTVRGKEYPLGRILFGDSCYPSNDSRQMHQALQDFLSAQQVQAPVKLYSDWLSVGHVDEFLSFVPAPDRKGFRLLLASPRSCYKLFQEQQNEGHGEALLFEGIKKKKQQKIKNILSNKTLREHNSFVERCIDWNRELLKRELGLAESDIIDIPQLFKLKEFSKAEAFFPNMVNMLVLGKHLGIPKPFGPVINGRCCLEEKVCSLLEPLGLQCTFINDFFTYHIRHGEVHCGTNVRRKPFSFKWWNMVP

| pIC50 | SMILES |
| --- | --- |
| 7.09 | COc1cc(C(=O)N2C[C@H]3CC[C@@H]2[C@@H]3N)cc2nc(-c3cc4cccc(-c5cc[nH]n5)c4n3CC3CC3)n(C)c12 [Example 127, ((1R,4R,7R)-7-amino-2-azabicyclo[2.2.1]heptan-2-yl)(2-(1-(cyclopropylmethyl)-7-(1H-pyrazol-3-yl)-1H-indol-2-yl)-7-methoxy-1-methyl-1H-benzo[d]imidazol-5-yl)methanone] |
| 6.75 | COc1cc(C(=O)N2CC3CCC2[C@@H]3N)cc2nc(-c3cc4cccc(-c5ccco5)c4n3CC3CC3)n(C)c12 (stereo partly drawn) [Example 130, ((7R)-7-amino-2-azabicyclo[2.2.1]heptan-2-yl)(2-(1-(cyclopropylmethyl)-7-(furan-2-yl)-1H-indol-2-yl)-7-methoxy-1-methyl-1H-benzo[d]imidazol-5-yl)methanone] |
| 6.84 | COc1cc(C(=O)N2C[C@H]3CC[C@@H]2[C@@H]3N)cc2nc(-c3cc4cccc(-c5cccc6c5CNC6=O)c4n3CC3CC3)n(C)c12 [Example 96, 4-(2-{5-[(1R,4R,7R)-7-amino-2-azabicyclo[2.2.1]heptane-2-carbonyl]-7-methoxy-1-methyl-1H-1,3-benzodiazol-2-yl}-1-(cyclopropylmethyl)-1H-indol-7-yl)-2,3-dihydro-1H-isoindol-1-one] |
| 7.21 | COc1cc(C(=O)N2C[C@H]3CC[C@@H]2[C@@H]3N)cc2nc(-c3cc4cccc(-c5ccc(NC(C)=O)nc5)c4n3CC3CC3)n(C)c12 [Example 106, N-[5-(2-{5-[(1R,4R,7R)-7-amino-2-azabicyclo[2.2.1]heptane-2-carbonyl]-7-methoxy-1-methyl-1H-1,3-benzodiazol-2-yl}-1-(cyclopropylmethyl)-1H-indol-7-yl)pyridin-2-yl]acetamide] |
| 7.25 | COc1cc(C(=O)N2C[C@H]3CC[C@@H]2[C@@H]3N)cc2nc(-c3cc4cccc(CCn5cncn5)c4n3CC3CC3)n(C)c12 [Example 29, (1R,4R,7R)-2-{2-[1-(cyclopropylmethyl)-7-[2-(1H-1,2,4-triazol-1-yl)ethyl]-1H-indol-2-yl]-7-methoxy-1-methyl-1H-1,3-benzodiazole-5-carbonyl}-2-azabicyclo[2.2.1]heptan-7-amine] |
| 6.90 | COc1cc(C(=O)N2C[C@H]3CC[C@@H]2[C@@H]3N)cc2nc(-c3cc4cccc(-c5ccc(C(=O)N(C)C)cc5)c4n3CC3CC3)n(C)c12 [Example 125, 4-(2-(5-((1R,4R,7R)-7-amino-2-azabicyclo[2.2.1]heptane-2-carbonyl)-7-methoxy-1-methyl-1H-benzo[d]imidazol-2-yl)-1-(cyclopropylmethyl)-1H-indol-7-yl)-N,N-dimethylbenzamide] |
| 7.03 | COc1cc(C(=O)N2C[C@H]3CC[C@@H]2[C@@H]3N)cc2nc(-c3cc4cccc(-c5ccc(C(N)=O)c(Cl)c5)c4n3CC3CC3)n(C)c12 [Example 104, 4-(2-{5-[(1R,4R,7R)-7-amino-2-azabicyclo[2.2.1]heptane-2-carbonyl]-7-methoxy-1-methyl-1H-1,3-benzodiazol-2-yl}-1-(cyclopropylmethyl)-1H-indol-7-yl)-2-chlorobenzamide] |
| 6.77 | COc1cc(C(=O)N2C[C@H]3CC[C@@H]2[C@@H]3N)cc2nc(-c3cc4cccc(-c5ccccc5C#N)c4n3CC3CC3C)n(C)c12 (stereo partly drawn) [Example 155, 2-(2-(5-((1R,4R,7R)-7-amino-2-azabicyclo[2.2.1]heptane-2-carbonyl)-7-methoxy-1-methyl-1H-benzo[d]imidazol-2-yl)-1-((2-methylcyclopropyl)meth-yl)-1H-indol-7-yl)benzonitrile] |
| 7.28 | COc1cc(C(=O)N2C[C@H]3CC[C@@H]2[C@@H]3N)cc2nc(-c3cc4cccc(C5=CCC5)c4n3CC3CC3)n(C)c12 [Example 219, ((1R,4R,7R)-7-amino-2-azabicyclo[2.2.1]heptan-2-yl)(2-(7-(cyclobut-1-en-1-yl)-1-(cyclopropylmethyl)-1H-indol-2-yl)-7-methoxy-1-methyl-1H-benzo[d]imidazol-5-yl)methanone] |
| 7.04 | COc1cc(C(=O)N2C[C@H]3CC[C@@H]2[C@@H]3N)cc2nc(-c3cc4cccc(C5CC(C(=O)N6CC[C@H](O)C6)C5)c4n3CC3CC3)n(C)c12 (single isomer, unassigned) [Example 54] |
| 7.12 | COc1cc(C(=O)N2C[C@H]3CC[C@@H]2[C@@H]3N)cc2nc(-c3cc4cccc(Nc5cnn(CC(F)(F)F)c5)c4n3CC3CC3)n(C)c12 [Example 165, ((1R,4R,7R)-7-amino-2-azabicyclo[2.2.1]heptan-2-yl)(2-(1-(cyclopropylmethyl)-7-((1-(2,2,2-trifluoroethyl)-1H-pyrazol-4-yl)amino)-1H-indol-2-yl)-7-methoxy-1-methyl-1H-benzo[d]imidazol-5-yl)methanone] |
| 6.90 | COc1cc(C(=O)N2C[C@H]3CC[C@@H]2[C@@H]3N)cc2nc(-c3cc4cccc(-c5cc[nH]n5)c4n3CC3CC3(Cl)Cl)n(C)c12 (stereo partly drawn) [Example 152, ((1R,4R,7R)-7-amino-2-azabicyclo[2.2.1]heptan-2-yl)(2-(1-((2,2-dichlorocyclopropyl)meth-yl)-7-(1H-pyrazol-3-yl)-1H-indol-2-yl)-7-methoxy-1-methyl-1H-benzo[d]imidazol-5-yl)methanone] |
| 7.52 | COc1cc(C(=O)N2C[C@H]3CC[C@@H]2[C@@H]3N)cc2nc(-c3cc4cccc(C5CCNCC5)c4n3CC3CC3)n(C)c12 [Example 4, (1R,4R,7R)-2-{2-[1-(cyclopropylmethyl)-7-(piperidin-4-yl)-1H-indol-2-yl]-7-methoxy-1-methyl-1H-1,3-benzodiazole-5-carbonyl}-2-azabicyclo[2.2.1]heptan-7-amine] |
| 6.74 | COc1cc(C(=O)N2C[C@H]3CC[C@@H]2[C@@H]3N)cc2nc(-c3cc4cccc(-c5cn(CC(C)(C)O)nc5C)c4n3CC3CC3)n(C)c12 [Example 139, ((1R,4R,7R)-7-amino-2-azabicyclo[2.2.1]heptan-2-yl)(2-(1-(cyclopropylmethyl)-7-(1-(2-hydroxy-2-methylpropyl)-3-methyl-1H-pyrazol-4-yl)-1H-indol-2-yl)-7-methoxy-1-methyl-1H-benzo[d]imidazol-5-yl)methanone] |
| 6.93 | COc1cc(C(=O)N2C[C@H](N)C[C@@H](F)C2)cc2nc(-c3cc4cccc(C5CC(C(=O)N(C)C)C5)c4n3CC3CC3)n(C)c12 (single isomer, unassigned) [Example 117] |
| 7.13 | COc1cc(C(=O)N2C[C@H]3CC[C@@H]2[C@@H]3N)cc2nc(-c3cc4cccc(CCCS(C)(=O)=O)c4n3CC3CC3)n(C)c12 [Example 27, (1R,4R,7R)-2-{2-[1-(cyclopropylmethyl)-7-(3-methanesulfonylpropyl)-1H-indol-2-yl]-7-methoxy-1-methyl-1H-1,3-benzodiazole-5-carbonyl}-2-azabicyclo[2.2.1]heptan-7-amine] |
| 7.82 | COc1cc(C(=O)N2C[C@H]3CC[C@@H]2[C@@H]3N)cc2nc(-c3cc4cccc(C5CN(C(=O)Nc6ccccc6)C5)c4n3CC3CC3)n(C)c12 [Example 70, 3-(2-{5-[(1R,4R,7R)-7-amino-2-azabicyclo[2.2.1]heptane-2-carbonyl]-7-methoxy-1-methyl-1H-1,3-benzodiazol-2-yl}-1-(cyclopropylmethyl)-1H-indol-7-yl)-N-phenylazetidine-1-carboxamide] |

Same assay, conditions: human PAD4, rapid-fire mass spectrum (RFMS) assay; 5 nM hPAD4, 250 μM BAEE; read-out: hPAD4 RFMS IC50

| pIC50 | SMILES |
| --- | --- |
| 7.21 | COc1cc(C(=O)N2C[C@H]3CC[C@@H]2[C@@H]3N)cc2nc(-c3cc4cccc(CC5CN(C(C)=O)C5)c4n3CC3CC3)n(C)c12 [Example 63, 1-{3-[(2-{5-[(1R,4R,7R)-7-amino-2-azabicyclo[2.2.1]heptane-2-carbonyl]-7-methoxy-1-methyl-1H-1,3-benzodiazol-2-yl}-1-(cyclopropylmethyl)-H-indol-7-yl)methyl]azetidin-1-yl}ethan-1-one] |
| 7.12 | CNC(=O)C1CC(c2cccc3cc(-c4nc5cc(C(=O)N6C[C@H](N)C[C@@H](F)C6)cc(OC)c5n4C)n(CC4CC4)c23)C1 (single isomer, unassigned) [Example 111] |
| 7.59 | COc1cc(C(=O)N2C[C@H]3CC[C@@H]2[C@@H]3N)cc2nc(-c3cc4cccc(C5CN(C(C)=O)C5)c4n3CC3CC3)n(C)c12 [Example 37, 1-(3-(2-(5-((1R,4R,7R)-7-amino-2-azabicyclo[2.2.1]heptane-2-carbonyl)-7-methoxy-1-methyl-1H-benzo[d]imidazol-2-yl)-1-(cyclopropylmethyl)-1H-indol-7-yl)azetidin-1-yl)ethan-1-one] |
| 6.88 | COc1cc(C(=O)N2C[C@H](N)C[C@@H](F)C2)cc2nc(-c3cc4cccc(OC)c4n3CC3CC3)n(C)c12 [Example 185, ((3R,5R)-3-amino-5-fluoropiperidin-1-yl)(2-(1-(cyclopropylmethyl)-7-methoxy-1H-indol-2-yl)-7-methoxy-1-methyl-1H-benzo[d]imidazol-5-yl)methanone] |
| 6.89 | COc1cc(C(=O)N2C[C@H]3CC[C@@H]2[C@@H]3N)cc2nc(-c3cc4cccc(C#N)c4n3CC3CC3)n(C)c12 [Example 183, 2-(5-((1R,4R,7R)-7-amino-2-azabicyclo[2.2.1]heptane-2-carbonyl)-7-methoxy-1-methyl-1H-benzo[d]imidazol-2-yl)-1-(cyclopropylmethyl)-1H-indole-7-carbonitrile] |
| 7.28 | COc1cc(C(=O)N2C[C@H](N)C[C@@H](F)C2)cc2nc(-c3cc4cccc(C5CN(C(C)=O)C5)c4n3CC3CC3)n(C)c12 [Example 41, 1-[3-(2-{5-[(3R,5R)-3-amino-5-fluoropiperidine-1-carbonyl]-7-methoxy-1-methyl-1H-1,3-benzodiazol-2-yl}-1-(cyclopropylmethyl)-1H-indol-7-yl)azetidin-1-yl]ethan-1-one] |
